“And” between values parts separate entries of the source, which are not always exact repeats. Equal values may be shown once.
Test system: 377384-186-R-J1-PDC complex spheroid viability
Test: Anticancer human tumor 377384-186-R-J1-PDC patient-derived pancreatic carcinoma cell line growth inhibition [CLK]
Conditions: for viability, T/C: stronger effect = lower value
Excerpt: A high-throughput screen of multi-cell type tumor spheroids was designed to identify active combinations of […] and targeted small molecules. Complex spheroids include a stromal component modeled by human endothelial cells (HUVEC) and fibroblasts modeled by human mesenchymal stem cells (MSCs). The concentration ranges selected for each drug and investigational agent were based upon clinically achievable concentrations if the clinical Cmax of the agent was known.
Compounds. The drugs and investigational agents: cirtuvivint (SM08502; NSC835563), CC-671 (NSC850746), vemurafenib (NSC761431), tapotoclax (NSC804041), sotorasib (NSC818433), adagrasib (NSC831453), MRTX-1133 (NSC836407), BAY2416964 (NSC825713), copanlisib (NSC816437), inavolisib (NSC800729), abemaciclib (NSC768073), osimertinib (NSC779217), entinostat (NSC756642), eltanexor (KPT-8602, NSC794443), venetoclax (NSC766270), ceralasertib (NSC777638), bortezomib (NSC756655), olaparib (NSC753686), talazoparib (NSC767125), alisertib (NSC759677), peposertib (NSC802822), gemcitabine (NSC613327), 5-fluorouracil (NSC19893), SN-38 (NSC673596), oxaliplatin (NSC266046), paclitaxel (NSC125973), and doxorubicin (NSC123127), were obtained from the National Cancer Institute (NCI) Developmental Therapeutics Program Chemical Repository. The FDA-approved anticancer drug set is available from the Developmental Therapeutics Program at https://dtp.cancer.gov/organization/dscb/obtaining/available plates.htm. […] The stock solutions were prepared in dimethyl sulfoxide (DMSO, Sigma-Aldrich, St. Louis, MO, cat. D2650), except for the platinum complexes which were prepared in saline (Quality Biological, Gaithersburg, MD, cat. 114-055-101), at 800-fold the tested concentration and stored at -70 degrees C prior to their use. All drugs and investigational agents were tested over a range starting from a high concentration at or near the clinical Cmax and decreasing in half-log increments. If the clinical Cmax for an agent had not been determined, the highest concentration tested was 10 microM.
Cell Culture. All cells were maintained in an incubator at 37 degrees C and 5% CO2 with 95% humidity. The PDC lines were cultured according to standard operating procedures established by the NCI PDMR. Briefly, all PDCs were thawed and cultured in Matrigel-coated flasks prepared with a working solution of 1X Ham's F-12 nutrient mix, without supplementation (Invitrogen, Waltham, MA, cat. 11765054), 100 U/mL penicillin-streptomycin (Invitrogen, cat. 15140122), and 2.5% Matrigel (Corning Inc., Corning, NY, cat. 354248) for the first three passages. The 947758-054-R-J2-PDC line was cultured in 6B/Colon 1A media, which includes advanced DMEM/F-12 (Thermo Fisher Scientific, cat. 12634028), 10 mM HEPES (Thermo Fisher Scientific, cat. 15630080), 1X GlutaMAX supplement (Thermo Fisher Scientific, cat. 35050061), 0.1 mg/mL primocin (InvivoGen, cat. ant-pm-2), 10% defined fetal bovine serum, heat inactivated (HyClone Laboratories Inc., cat. SH30070.03HI), 1.25 mM N-Acetyl-L-cysteine (Sigma-Aldrich, cat. A9165), 10 mM nicotinamide (Sigma-Aldrich, cat. N0636), 1X B-27 supplement (Thermo Fisher Scientific, cat. 17504044), 1X N-2 supplement (Thermo Fisher Scientific, cat. 17502048), and 10 microM Y-27632 dihydrochloride (Tocris Bioscience, cat. 1254). The 876862-298-R-J1-PDC was cultured in 6E media, which includes all 6B/Colon 1A media components plus 50% L-WRN conditioned media (ATCC, cat. CRL-3276), 50 ng/mL recombinant human EGF recombinant protein (hEGF; Thermo Fisher Scientific, cat. PHG0311), 10 ng/mL recombinant human fibroblast growth factor 10 (hGFG-10; PeproTech, cat. 100-26), 1 ng/mL recombinant human fibroblast growth factor 2 (hFGF-2; PeproTech, cat. 100-18B), and 1 µM prostaglandin E2 (PGE2; Tocris, cat. 2296). The 227483-062-R1-J1-PDC line was cultured in Panc media, containing all 6E components except hFGF-2, with the addition of 500 nM SB-431542 (Selleckchem, cat. S1067) and 10 nM gastrin (Tocris, cat. 3006). […]

[1] = curve of first compound, second compound 0.0316 µM
[2] = curve of first compound, second compound 0.1 µM
[3] = curve of first compound, second compound 0.316 µM
[4] = curve of first compound, second compound 1 µM
[5] = curve of first compound, second compound 3.16 µM
[6] = curve of first compound, second compound 10 µM
[7] = second compound 0.0316 µM, first compound 0.0316 µM
[8] = second compound 0.0316 µM, first compound 0.1 µM
[9] = second compound 0.0316 µM, first compound 0.316 µM
[10] = second compound 0.0316 µM, first compound 1 µM
[11] = second compound 0.1 µM, first compound 0.0316 µM
[12] = second compound 0.1 µM, first compound 0.1 µM
[13] = second compound 0.1 µM, first compound 0.316 µM
[14] = second compound 0.1 µM, first compound 1 µM
[15] = second compound 0.316 µM, first compound 0.0316 µM
[16] = second compound 0.316 µM, first compound 0.1 µM
[17] = second compound 0.316 µM, first compound 0.316 µM
[18] = second compound 0.316 µM, first compound 1 µM
[19] = second compound 1 µM, first compound 0.0316 µM
[20] = second compound 1 µM, first compound 0.1 µM
[21] = second compound 1 µM, first compound 0.316 µM
[22] = second compound 1 µM, first compound 1 µM
[23] = second compound 3.16 µM, first compound 0.0316 µM
[24] = second compound 3.16 µM, first compound 0.1 µM
[25] = second compound 3.16 µM, first compound 0.316 µM
[26] = second compound 3.16 µM, first compound 1 µM
[27] = second compound 10 µM, first compound 0.0316 µM
[28] = second compound 10 µM, first compound 0.1 µM
[29] = second compound 10 µM, first compound 0.316 µM
[30] = second compound 10 µM, first compound 1 µM
[31] = second compound 0.0316 µM, first compound 3.16 µM
[32] = second compound 0.0316 µM, first compound 10 µM
[33] = second compound 0.1 µM, first compound 3.16 µM
[34] = second compound 0.1 µM, first compound 10 µM
[35] = second compound 0.316 µM, first compound 3.16 µM
[36] = second compound 0.316 µM, first compound 10 µM
[37] = second compound 1 µM, first compound 3.16 µM
[38] = second compound 1 µM, first compound 10 µM
[39] = second compound 3.16 µM, first compound 3.16 µM
[40] = second compound 3.16 µM, first compound 10 µM
[41] = second compound 10 µM, first compound 3.16 µM
[42] = second compound 10 µM, first compound 10 µM
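Further: spheroids exposed to agents for 7 days before reading.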
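Wherever viability, T/C is given: luminescence signal used as a stand-in for viable cells.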

## CCc1c2c(nc3ccc(O)cc13)-c1cc3c(c(=O)n1C2)COC(=O)[C@]3(O)CC + CN1CCN(c2cc(C(=O)Nc3cc4cc(-c5cnn(C)c5)ccc4cn3)ccn2)CC1
[1]
  IC50: < 3.16 nM
[2]
  IC50: < 3.16 nM
[3]
  IC50: < 3.16 nM
[4]
  IC50: < 3.16 nM
[5]
  IC50: < 3.16 nM
[6]
  IC50: < 3.16 nM
Second compound 0.0316 µM, first compound 0.00316 µM
  viability, T/C: 38.2%
Second compound 0.0316 µM, first compound 0.01 µM
  viability, T/C: 16.4%
[7]
  viability, T/C: 9%
[8]
  viability, T/C: 3.5%
[9]
  viability, T/C: 2%
[10]
  viability, T/C: 0.73%
Second compound 0.1 µM, first compound 0.00316 µM
  viability, T/C: 31.7%
Second compound 0.1 µM, first compound 0.01 µM
  viability, T/C: 18.6%
[11]
  viability, T/C: 8.13%
[12]
  viability, T/C: 3.62%
[13]
  viability, T/C: 1.47%
[14]
  viability, T/C: 0.71%
Second compound 0.316 µM, first compound 0.00316 µM
  viability, T/C: 18.3%
Second compound 0.316 µM, first compound 0.01 µM
  viability, T/C: 15%
[15]
  viability, T/C: 7.22%
[16]
  viability, T/C: 4.37%
[17]
  viability, T/C: 1.79%
[18]
  viability, T/C: 0.66%
Second compound 1 µM, first compound 0.00316 µM
  viability, T/C: 0.56%
Second compound 1 µM, first compound 0.01 µM
  viability, T/C: 0.36%
[19]
  viability, T/C: 1.07%
[20]
  viability, T/C: 0.19%
[21]
  viability, T/C: 0.14%
[22]
  viability, T/C: 0.3%
Second compound 3.16 µM, first compound 0.00316 µM
  viability, T/C: 0.23%
Second compound 3.16 µM, first compound 0.01 µM
  viability, T/C: 0.3%
[23]
  viability, T/C: 0.53%
[24]
  viability, T/C: 0.25%
[25]
  viability, T/C: 0.38%
[26]
  viability, T/C: 0.85%
Second compound 10 µM, first compound 0.00316 µM
  viability, T/C: 0.27%
Second compound 10 µM, first compound 0.01 µM
  viability, T/C: 1.05%
[27]
  viability, T/C: 0.38%
[28]
  viability, T/C: 0.27%
[29]
  viability, T/C: 0.23%
[30]
  viability, T/C: 0.35%

## COc1cccc2c1C(=O)c1c(O)c3c(c(O)c1C2=O)CC(O)(C(=O)CO)CC3OC1CC(N)C(O)C(C)O1 (stereo not drawn) + CN1CCN(c2cc(C(=O)Nc3cc4cc(-c5cnn(C)c5)ccc4cn3)ccn2)CC1
[1]
  IC50: < 31.6 nM
[2]
  IC50: < 31.6 nM
[3]
  IC50: < 31.6 nM
[4]
  IC50: < 31.6 nM
[5]
  IC50: < 31.6 nM
[6]
  IC50: < 31.6 nM
[7]
  viability, T/C: 16.3%
[8]
  viability, T/C: 7.2%
[9]
  viability, T/C: 1.82%
[10]
  viability, T/C: 0.52%
[31]
  viability, T/C: 3.08%
[32]
  viability, T/C: 7.38%
[11]
  viability, T/C: 17.7%
[12]
  viability, T/C: 5.86%
[13]
  viability, T/C: 1.2%
[14]
  viability, T/C: 0.36%
[33]
  viability, T/C: 4.01%
[34]
  viability, T/C: 8.5%
[15]
  viability, T/C: 15.2%
[16]
  viability, T/C: 4.88%
[17]
  viability, T/C: 0.54%
[18]
  viability, T/C: 0.77%
[35]
  viability, T/C: 3.95%
[36]
  viability, T/C: 9.46%
[19]
  viability, T/C: 0.41%
[20]
  viability, T/C: 0.53%
[21]
  viability, T/C: 0.23%
[22]
  viability, T/C: 1.24%
[37]
  viability, T/C: 3.93%
[38]
  viability, T/C: 8.63%
[23]
  viability, T/C: 0.22%
[24]
  viability, T/C: 0.41%
[25]
  viability, T/C: 1.02%
[26]
  viability, T/C: 1.45%
[39]
  viability, T/C: 6.27%
[40]
  viability, T/C: 9.38%
[27]
  viability, T/C: 0.49%
[28]
  viability, T/C: 0.33%
[29]
  viability, T/C: 1.94%
[30]
  viability, T/C: 0.34%
[41]
  viability, T/C: 0.53%
[42]
  viability, T/C: 0.18%

## C=CC(=O)Nc1cc(Nc2nccc(-c3cn(C)c4ccccc34)n2)c(OC)cc1N(C)CCN(C)C
Compound 0.000949 µM
  viability, T/C: 104% and 105%
Compound 0.003 µM
  viability, T/C: 84.7% and 99.9%
Compound 0.00949 µM
  viability, T/C: 85.3% and 108%
Compound 0.03 µM
  viability, T/C: 85.4% and 97.6%
Compound 0.0949 µM
  viability, T/C: 78% and 77.1%
Compound 0.3 µM
  viability, T/C: 50% and 62%
Curve of compound
  IC50: > 300 nM

## Nc1ccn(C2OC(CO)C(O)C2(F)F)c(=O)n1 (stereo not drawn) + CNC(=O)c1ccc(Nc2nc(OC3CCCC3)c3c(-c4ccc5nc(C)oc5c4)c[nH]c3n2)c(OC)c1
[1]
  IC50: < 31.6 nM
[2]
  IC50: < 31.6 nM
[3]
  IC50: < 31.6 nM
[4]
  IC50: < 31.6 nM
[5]
  IC50: < 31.6 nM
[6]
  IC50: < 31.6 nM
[7]
  viability, T/C: 8.18%
[8]
  viability, T/C: 3.36%
[9]
  viability, T/C: 3.13%
[10]
  viability, T/C: 2.68%
[31]
  viability, T/C: 2.2%
[32]
  viability, T/C: 1.72%
[11]
  viability, T/C: 6.64%
[12]
  viability, T/C: 4.51%
[13]
  viability, T/C: 2.85%
[14]
  viability, T/C: 2.62%
[33]
  viability, T/C: 2.66%
[34]
  viability, T/C: 2.22%
[15]
  viability, T/C: 7.09%
[16]
  viability, T/C: 3.96%
[17]
  viability, T/C: 3.31%
[18]
  viability, T/C: 2.62%
[35]
  viability, T/C: 2.25%
[36]
  viability, T/C: 1.52%
[19]
  viability, T/C: 8.74%
[20]
  viability, T/C: 4.85%
[21]
  viability, T/C: 4.17%
[22]
  viability, T/C: 3.63%
[37]
  viability, T/C: 1.95%
[38]
  viability, T/C: 1.24%
[23]
  viability, T/C: 8.43%
[24]
  viability, T/C: 6.12%
[25]
  viability, T/C: 4.34%
[26]
  viability, T/C: 3.36%
[39]
  viability, T/C: 3.71%
[40]
  viability, T/C: 1.58%
[27]
  viability, T/C: 9.23%
[28]
  viability, T/C: 7.84%
[29]
  viability, T/C: 5.26%
[30]
  viability, T/C: 3.45%
[41]
  viability, T/C: 2.47%
[42]
  viability, T/C: 1.32%
